Experimental data from PubChem BioAssay AID180 (DTP/NCI, 2004).
“And” between values parts separate entries of the source, which are not always exact repeats. Equal entries are not always repeated.

Test system: BDF1 mice, Adenocarcinoma 755 s.c., tumor weight T/C
Test: NCI In Vivo Anticancer Drug Screen. Data for tumor model Adenocarcinoma 755 (subcutaneous) in B6D2F1 (BDF1) mice
Conditions: endpoint: mean tumor weight, schedule: Q01DX011 (ip), higher = larger tumour
In short: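 Transplantable tumor implanted; mice dosed with compound or vehicle; survival or tumor size recorded; ratio of treated to vehicle control reported.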

[1] = dose: 37.5 mg/kg/injection, vehicle: carboxymethylcellulose (CMC)

CC(/C=N\N=C(N)N)=N/N=C(N)N
T/C (dose: 5.75 mg/kg/injection, vehicle: carboxymethylcellulose (CMC)): 84 % of control | T/C (dose: 7.62 mg/kg/injection, vehicle: carboxymethylcellulose (CMC)): 77 % of control | T/C (dose: 11.5 mg/kg/injection, vehicle: carboxymethylcellulose (CMC)): 78 % of control | T/C (dose: 15.24 mg/kg/injection, vehicle: carboxymethylcellulose (CMC)): 71 % of control | T/C (dose: 18.4 mg/kg/injection, vehicle: carboxymethylcellulose (CMC)): 70 % of control and 86 % of control | T/C (dose: 23.0 mg/kg/injection, vehicle: carboxymethylcellulose (CMC)): 93 % of control and 100 % of control and 80 % of control | T/C (dose: 30.48 mg/kg/injection, vehicle: carboxymethylcellulose (CMC)): 42 % of control | T/C (dose: 46.0 mg/kg/injection, vehicle: carboxymethylcellulose (CMC)): 29 % of control and 45 % of control and 51 % of control | T/C (dose: 60.96 mg/kg/injection, vehicle: carboxymethylcellulose (CMC)): 35 % of control

Nc1ncnc2[nH]ncc12
T/C (dose: 0.94 mg/kg/injection, vehicle: carboxymethylcellulose (CMC)): 78 % of control | T/C (dose: 1.1 mg/kg/injection, vehicle: carboxymethylcellulose (CMC)): 69 % of control | T/C (dose: 1.41 mg/kg/injection, vehicle: carboxymethylcellulose (CMC)): 73 % of control | T/C (dose: 1.5 mg/kg/injection, vehicle: carboxymethylcellulose (CMC)): 67 % of control | T/C (dose: 1.88 mg/kg/injection, vehicle: carboxymethylcellulose (CMC)): 54 % of control and 61 % of control | T/C (dose: 2.5 mg/kg/injection, vehicle: carboxymethylcellulose (CMC)): 32 % of control | T/C (dose: 3.1 mg/kg/injection, vehicle: carboxymethylcellulose (CMC)): 74 % of control | T/C (dose: 3.75 mg/kg/injection, vehicle: carboxymethylcellulose (CMC)): 31 % of control and 36 % of control | T/C (dose: 4.52 mg/kg/injection, vehicle: carboxymethylcellulose (CMC)): 108 % of control | T/C (dose: 5.65 mg/kg/injection, vehicle: carboxymethylcellulose (CMC)): 50 % of control and 63 % of control | T/C (dose: 6.2 mg/kg/injection, vehicle: carboxymethylcellulose (CMC)): 6 % of control | T/C (dose: 7.5 mg/kg/injection, vehicle: carboxymethylcellulose (CMC)): 5 % of control and 6 % of control | T/C (dose: 7.53 mg/kg/injection, vehicle: carboxymethylcellulose (CMC)): 36 % of control | T/C (dose: 11.3 mg/kg/injection, vehicle: carboxymethylcellulose (CMC)): 31 % of control

Nc1nc(SCC(=O)c2ccc(Cl)cc2)c2ncn(C3OC(CO)C(O)C3O)c2n1 (centres undefined)
T/C (dose: 37.5 mg/kg/injection, vehicle: methylcellulose (MC)): 62 % of control | T/C (dose: 75.0 mg/kg/injection, vehicle: methylcellulose (MC)): 44 % of control | T/C (dose: 150.0 mg/kg/injection, vehicle: methylcellulose (MC)): 31 % of control | T/C (dose: 300.0 mg/kg/injection, vehicle: methylcellulose (MC)): 24 % of control

Nc1nc(Cl)cc(Nc2ccc(CCO)cc2)n1
T/C (dose: 15.0 mg/kg/injection, vehicle: methylcellulose (MC)): 101 % of control | T/C (dose: 62.0 mg/kg/injection, vehicle: methylcellulose (MC)): 77 % of control | T/C (dose: 125.0 mg/kg/injection, vehicle: methylcellulose (MC)): 102 % of control

NNc1nncc2ccccc12
T/C [1]: 90 % of control | T/C (dose: 75.0 mg/kg/injection, vehicle: carboxymethylcellulose (CMC)): 47 % of control

NNc1ncnc2nc[nH]c12
T/C (dose: 25.0 mg/kg/injection, vehicle: carboxymethylcellulose (CMC)): 68 % of control | T/C [1]: 57 % of control
